Results on 33 compounds are retold here after patent US7078428B2, “Isoindolone derivatives, preparation process and intermediates of this process, their use as medicaments, and pharmaceutical compositions comprising them” (Sanofi-Aventis Deutschland GmbH, priority 2002, dated 2006).

pIC50: −log10 of the molar value. Values joined by “and” are separate entries in the source; they are usually repeats but may differ in a detail not shown here. Equal entries are not always repeated.

In the assay the target is T1, NHE1 (Homo sapiens, UniProt P19634).
T1 construct: expressed in transfected cells
T1 sequence (P19634 whole entry, species assumed): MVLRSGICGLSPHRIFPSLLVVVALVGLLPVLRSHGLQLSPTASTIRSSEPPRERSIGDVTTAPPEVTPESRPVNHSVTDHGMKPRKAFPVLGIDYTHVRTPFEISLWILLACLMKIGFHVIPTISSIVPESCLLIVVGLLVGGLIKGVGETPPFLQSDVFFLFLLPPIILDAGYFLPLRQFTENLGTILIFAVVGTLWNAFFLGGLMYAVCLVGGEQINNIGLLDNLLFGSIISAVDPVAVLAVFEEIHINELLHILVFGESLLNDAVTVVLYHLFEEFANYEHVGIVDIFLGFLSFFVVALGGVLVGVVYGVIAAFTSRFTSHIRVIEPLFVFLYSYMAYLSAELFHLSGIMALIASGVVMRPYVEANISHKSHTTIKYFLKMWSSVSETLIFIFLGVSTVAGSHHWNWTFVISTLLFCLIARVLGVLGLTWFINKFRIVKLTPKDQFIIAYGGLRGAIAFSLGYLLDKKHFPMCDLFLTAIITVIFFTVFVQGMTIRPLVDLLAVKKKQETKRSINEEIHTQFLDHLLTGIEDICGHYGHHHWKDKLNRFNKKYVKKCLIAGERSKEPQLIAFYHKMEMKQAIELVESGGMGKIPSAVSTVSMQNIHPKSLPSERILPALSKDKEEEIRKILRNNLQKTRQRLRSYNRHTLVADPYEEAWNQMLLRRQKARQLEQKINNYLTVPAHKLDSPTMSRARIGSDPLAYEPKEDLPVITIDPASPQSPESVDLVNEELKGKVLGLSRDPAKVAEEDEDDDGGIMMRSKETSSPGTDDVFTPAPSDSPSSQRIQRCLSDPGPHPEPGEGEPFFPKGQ
Put plainly: NHE inhibition FLIPR test (intracellular pH recovery, BCECF) in transfected LAP-1 cells. The class given is cell-based. Particulars: transfected cell line (parental LAP-1) expressing the NHE-1 subtype, pHi recovery after acidification. The method, then:
The NHE inhibitory activities (IC50 values) of the compounds according to the invention were determined by a FLIPR test.
The test is performed in the FLIPR (Fluorescent Imaging Plate Reader) equipped with clear-bottomed and black-walled 96-well microtitration plates.
The growth medium for the transfected cells (Iscove +10% foetal calf serum) also comprises G418 as selection antibiotic to ensure the presence of transfected sequences.
The actual test begins by eliminating the growth medium and adding 100 μl of loading buffer per well (5 μM of BCECF-AM [2′,7′-bis(2-carboxyethyl)-5-(6)-carboxyfluoresceine acetoxymethyl ester] in 20 mM of NH4Cl, 115 mM of choline chloride, 1 mM of CaCl2, 5 mM of KCl, 20 mM of HEPES and 5 mM of glucose; pH 7.4 (adjusted with KOH). The cells are then incubated for 20 minutes at 37° C. This incubation results in the loading of the fluorescent dye into the cells, the fluorescence intensity of which depends on the pHi, and on the NH4Cl, which results in a slight basification of the cells.
The precursor BCECF-AM, a non-fluorescent dye, is, as an ester, capable of crossing the membrane. The actual dye, which is incapable of crossing the membrane, is released inside the cell by esterases.
After this 20-minute incubation, the loading buffer, which comprises NH4Cl and free BCECF-AM, is removed by washing three times in the cell washing device (Tecan Columbus), each wash being performed with 400 μl of washing buffer (133.8 mM of choline chloride, 4.7 mM of KCl, 1.25 mM of MgCl2, 1.25 mM of CaCl2, 0.97 mM of K2HPO4, 0.23 mM of KH2PO4, 5 mM of HEPES and 5 mM of glucose; pH 7.4 (adjusted with KOH)). The residual volume remaining in the wells is 90 μl (possibly between 50 and 125 μl). This washing step removes the free BCECF-AM and results in an intracellular acidification (pHi of 6.3-6.4) due to the removal of the external ammonium ions.
As the equilibrium of the intracellular ammonium with the aqueous ammonia and the protons, by removal of the extracellular ammonium and by the subsequent immediate crossing of the aqueous ammonia across the cell membrane, is disrupted, the washing process results in intracellular protons remaining, which is the cause of the intracellular acidification. This acidification can result finally in the death of the cells if it lasts long enough. It is important here for the washing buffer to be free of sodium (<1 mM), otherwise the extracellular sodium ions would result in an immediate increase in the pHi on account of the activity of the cloned NHE isoforms. It is also important for all the buffers used (loading buffer, washing buffer and regeneration buffer) not to contain any HCO3-ions, otherwise the presence of bicarbonate would result in the activation of bicarbonate-dependent systems that disrupt the pHi regulation, which systems are contained in the LAP-1 parental cell line.
The microtiter plates containing acidified cells are then transferred (up to 20 minutes after the acidification) to the FLIPR. In the FLIPR, the intracellular fluorescent dye is activated with light of a wavelength of 488 nm, which is generated by an argon laser, and the measuring parameters (laser power, illumination time and diaphragm of the […] camera integrated into the FLIPR) are chosen such that the average value of the fluorescent signal per well is between 30,000 and 35,000 relative fluorescence units.
The actual measurement in the FLIPR starts with a photograph being taken by the CCD camera every two seconds under software control. After 10 seconds, the increase in the intracellular pH is initiated by adding 90 μl of regeneration buffer (133.8 mM of NaCl, 4.7 mM of KCl, 1.25 mM of MgCl2, 1.25 mM of CaCl2, 0.97 mM of K2HPO4, 0.23 mM of KH2PO4, 10 mM of HEPES and 5 mM of glucose; pH 7.4 (adjusted with NaOH)) using a 96-well pipette device incorporated into the FLIPR. Some wells, to which is added pure regeneration buffer, serve as positive controls (100% NHE activity). […]
Take `NC(N)=NC(=O)CC1c2cc(Cl)c(Cl)cc2C(=O)N1C1CC1` (racemic) [Example 43, (R)-N-[2-(5,6-Dichloro-2-cyclopropyl-3-oxo-2,3-dihydro-1H-isoindol-1-yl)-acetyl]-guanidine and (S)-N-[2-(5,6-Dichloro-2-cyclopropyl-3-oxo-2,3-dihydro-1H-isoindol-1-yl)-acetyl]-guanidine]: the pIC50 was 7.52.
Consider `NC(N)=NC(=O)CC1c2cc(Cl)ccc2C(=O)N1CCCC(F)(F)F` (single isomer, unassigned) [Example 53b], for which the pIC50 was 7.80.
Consider `NC(N)=NC(=O)CC1c2cc(C(F)(F)F)ccc2C(=O)N1CC(F)(F)F` (stereo not drawn) [Example 21, N-{2-[3-Oxo-2-(2,2,2-trifluoro-ethyl)-6-trifluoromethyl-2,3-dihydro-1H-isoindol-1-yl]-acetyl}-quanidine], for which the pIC50 is 8.31.
For `NC(N)=NC(=O)CC1c2ccc(Cl)cc2C(=O)N1CCCC(F)(F)F` (single isomer, unassigned) [Example 54b] the value was 7.32; for `CN1C(=O)c2ccccc2C1CC(=O)N=C(N)N` (stereo not drawn) [Example 1, N-[2-(2-Methyl-3-oxo-2,3-dihydro-1H-isoindol-1-yl)acetyl]guanidine], 7.13.
To `NC(N)=NC(=O)CC1c2ccc(Cl)cc2C(=O)N1CC1CC1` (single isomer, unassigned) [Example 56b] belongs 7.74; to `NC(N)=NC(=O)CC1c2cc(Cl)ccc2C(=O)N1CCC(F)(F)F` (single isomer, unassigned) [Example 49b], 7.89.
For `NC(N)=NC(=O)CC1c2ccc(C(F)(F)F)cc2C(=O)N1CCC(F)(F)F` (single isomer, unassigned) [Example 52a] the value was 7.30; for `Cc1ccc2c(c1)C(CC(=O)NC(=N)N)N(CC(C)C)C2=O` (stereo not drawn) [Example 35, N-[(2-Isobutyl-6-methyl-3-oxo-2,3-dihydro-1H-isoindol-1-yl)acetyl]guanidine], 7.42.
With `NC(N)=NC(=O)CC1c2cc(Cl)ccc2C(=O)N1CCCC(F)(F)F` (single isomer, unassigned) [Example 53a], the pIC50 was 7.08.
For `Cc1cccc2c1C(=O)N(CC(C)C)C2CC(=O)N=C(N)N` (stereo not drawn) [Example 20, N-[2-(2-Isobutyl-4-methyl-3-oxo-2,3-dihydro-1H-isoindol-1-yl)-acetyl]-guanidine] the value was 7.74; for `N=C(N)NC(=O)CC1c2ccccc2C(=O)N1CC(F)(F)F` (stereo not drawn) [Example 22, N-[2-(3-Oxo-2-(2,2,2-trifluoroethyl)-2,3-dihydro-1H-isoindol-1-yl)acetyl]guanidine], 7.00.
For `N=C(N)NC(=O)CC1c2cc(F)c(F)cc2C(=O)N1CCC(F)(F)F` (racemic) [Example 40, (R)-N-{2-[5,6-Difluoro-3-oxo-2-(3,3,3-trifluoro-propyl)-2,3-dihydro-1H-isoindol-1-yl]-acetyl}-guanidine and (S)-N-{2-[5,6-Difluoro-3-oxo-2-(3,3,3-trifluoro-propyl)-2,3-dihydro-1H-isoindol-1-yl]-acetyl}-guanidine] the value was 7.54; for `NC(N)=NC(=O)CC1c2cc(Cl)c(Cl)cc2C(=O)N1C1CC1` (single isomer, unassigned) [Example 43b], 6.35.
For `NC(N)=NC(=O)CC1c2ccc(Cl)cc2C(=O)N1CCC(F)(F)F` (single isomer, unassigned) [Example 50b] the value was 8.22; for `CC(C)CN1C(=O)c2ccccc2C1CC(=O)N=C(N)N` (stereo not drawn) [Example 2, N-[2-(2-Isobutyl-3-oxo-2,3-dihydro-1H-isoindol-1-yl)acetyl]guanidine], 7.23.
`[H]/N=C(\N)NC(=O)CC1c2cc(Cl)c(Cl)cc2C(=O)N1CC1CC1` (single isomer, unassigned) [Example 42b]: the negative-log IC50 (pIC50) was 8.52.
`CC(C)CN1C(=O)c2ccccc2C1CC(=O)N=C(N)N` (single isomer, unassigned; (+)) [Example 4, (+)-N-[2-(2-Isobutyl-3-oxo-2,3-dihydro-1H-isoindol-1-yl)acetyl]guanidine]: the pIC50 is 7.24.
In the case of `NC(N)=NC(=O)CC1c2ccc(Cl)cc2C(=O)N1CC1CC1` (single isomer, unassigned) [Example 56a], the pIC50 is 7.55.
For `NC(N)=NC(=O)CC1c2cc(Cl)ccc2C(=O)N1CC1CC1` (single isomer, unassigned) [Example 55a] the value was 8.70; for `NC(N)=NC(=O)CC1c2cc(C(F)(F)F)ccc2C(=O)N1CC(F)(F)F` (single isomer, unassigned) [Example 46b], 9.70; for “N-[2-(5-Bromo-2-isobutyl-3-oxo-2,3-dihydro-1H-isoindol-1-yl)acetyl]guanidine and N-[(6-Bromo-2-isobutyl-3-oxo-2,3-dihydro-1H-isoindol-1-yl)acetyl]guanidine [Example 13]”, 7.66.
To `CC(C)CN1C(=O)c2cc(OC(C)C)ccc2C1CC(=O)N=C(N)N` (stereo not drawn) [Example 16, N-[2-(2-Isobutyl-5-isopropoxy-3-oxo-2,3-dihydro-1H-isoindol-1-yl)-acetyl]-guanidine] belongs 6.60.
To “N-[2-(2-Cyclopropylmethyl-3-oxo-5-trifluoromethyl-2,3-dihydro-1H-isoindol-1-yl)acetyl]-guanidine and N-[2-(2-cyclopropylmethyl-3-oxo-6-trifluoromethyl-2,3-dihydro-1H-isoindol-1-yl)acetyl]guanidine [Example 25]” belongs 8.00.
For “N-[2-(6-Chloro-2-cyclopropylmethyl-3-oxo-2,3-dihydro-1H-isoindol-1-yl )-acetyl]-guanidine and N-[2-(5-Chloro-2-cyclopropylmethyl-3-oxo-2,3-dihydro-1H-isoindol-1 yl)-acetyl]-guanidine [Example 24]”, the pIC50 was 8.11.
Take “N-[2-(3-Oxo-2-(4,4,4-trifluorobutyl)-5-trifluoromethyl-2,3-dihydro-1H-isoindol-1-yl)-acetyl]guanidine and N-[2-(3-Oxo-2-(4,4,4-trifluorobutyl)-6-trifluoromethyl-2,3-dihydro-1H-isoindol-1-yl)acetyl]guanidine [Example 29]”: the pIC50 is 5.63.
As for `CC(C(=O)NC(=N)N)C1c2ccccc2C(=O)N1CCO` (single isomer, unassigned) [Example 33], the pIC50 was 5.44 and 5.33.
For `NC(N)=NC(=O)CC1c2ccccc2C(=O)N1Cc1ccccc1` (stereo not drawn) [Example 9, N-[2-(2-Benzyl-3-oxo-2,3-dihydro-1H-isoindol-1-yl)acetyl]guanidine] the value was 6.81; for `NC(N)=NC(=O)CC1c2cc(C(F)(F)F)ccc2C(=O)N1CCC(F)(F)F` (single isomer, unassigned) [Example 51a], 8.22.
To `NC(N)=NC(=O)CC1c2cc(C(F)(F)F)ccc2C(=O)N1CC1CC1` (single isomer, unassigned) [Example 38a] belongs 6.60.
For the compound `NC(N)=NC(=O)CC1c2cc(Cl)ccc2C(=O)N1CCC(F)(F)F` (single isomer, unassigned) [Example 49a], the pIC50 is 9.00.
To `[H]/N=C(\N)NC(=O)CC1c2cc(S(C)(=O)=O)ccc2C(=O)N1CC(F)(F)F` (single isomer, unassigned) [Example 36b] belongs 8.22; to `NC(N)=NC(=O)CC1c2cc(Cl)c(Cl)cc2C(=O)N1CC(F)(F)F` (single isomer, unassigned) [Example 44b], 7.89.
